Measurements as given in publication PMC5085249, “The Diguanylate Cyclase HsbD Intersects with the HptB Regulatory Cascade to Control Pseudomonas aeruginosa Biofilm and Motility” (PLoS Genetics, 2016).

Target: T1, HsbD (PA3343) (Pseudomonas aeruginosa, UniProt Q9HYQ2)
T1 construct: His-HsbD overexpressed in E. coli BL21(DE3), whole-cell lysate; native protein 389 aa, six predicted TM domains (52-206), GGDEF domain 252-389; tag kept
Experiment: DRaCALA (nitrocellulose, […]-labelled ligand)
Type: binding
Settings: 4 nM 32P-c-di-GMP; E. coli whole-cell lysate; 40 mM Tris pH 7.5, 100 mM NaCl, 10 mM MgCl2; allosteric inhibitory I-site; labelled compound

T1 sequence (Q9HYQ2 entry or part of it): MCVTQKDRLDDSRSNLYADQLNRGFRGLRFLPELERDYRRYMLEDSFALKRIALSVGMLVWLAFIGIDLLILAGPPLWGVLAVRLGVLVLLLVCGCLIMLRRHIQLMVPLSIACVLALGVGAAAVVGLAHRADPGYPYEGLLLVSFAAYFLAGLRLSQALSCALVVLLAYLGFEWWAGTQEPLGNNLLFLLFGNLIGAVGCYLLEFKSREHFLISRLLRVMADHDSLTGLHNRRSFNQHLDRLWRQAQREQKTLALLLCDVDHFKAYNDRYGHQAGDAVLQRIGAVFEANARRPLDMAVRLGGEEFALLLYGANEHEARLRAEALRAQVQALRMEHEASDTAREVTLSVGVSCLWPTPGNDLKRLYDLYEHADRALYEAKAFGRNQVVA

`Nc1nc2c(ncn2[C@@H]2O[C@@H]3COP(=O)(O)O[C@H]4[C@@H](O)[C@H](n5cnc6c(=O)[nH]c(N)nc65)O[C@@H]4COP(=O)(O)O[C@H]3[C@H]2O)c(=O)[nH]1` [c-di-GMP] was tested, and the fraction bound was “Significant c-di-GMP binding was observed with the construct encoding wild-type HsbD”.
